Laboratory results from patent US20260041670A1, “DRUGS FOR PREVENTING AND/OR TREATING ALZHEIMER'S DISEASE” (SHENZHEN UNIVERSITY OF ADVANCED TECHNOLOGY, priority 2023, published 2026).
≈ marks a conversion by molar mass, not a printed value. Read-outs that look alike come from different tables or passages of the source. One block for each molecule: values may come before it.

What was measured:
TrkB = biological target: T1, TrkB (Homo sapiens, UniProt Q16620); experiment: Pro-survival MTT assay after staurosporine-induced apoptosis in BR6 and T48 cells; format: cell-based; conditions: STS 100 nM, 24 h, in words, relative to CF3CN
T1 construct: expressed in transfected cells; host or cells: human SH-SY5Y cells (BR6/Br6) and T48 cells
T1 sequence (Q16620 32-822, species assumed): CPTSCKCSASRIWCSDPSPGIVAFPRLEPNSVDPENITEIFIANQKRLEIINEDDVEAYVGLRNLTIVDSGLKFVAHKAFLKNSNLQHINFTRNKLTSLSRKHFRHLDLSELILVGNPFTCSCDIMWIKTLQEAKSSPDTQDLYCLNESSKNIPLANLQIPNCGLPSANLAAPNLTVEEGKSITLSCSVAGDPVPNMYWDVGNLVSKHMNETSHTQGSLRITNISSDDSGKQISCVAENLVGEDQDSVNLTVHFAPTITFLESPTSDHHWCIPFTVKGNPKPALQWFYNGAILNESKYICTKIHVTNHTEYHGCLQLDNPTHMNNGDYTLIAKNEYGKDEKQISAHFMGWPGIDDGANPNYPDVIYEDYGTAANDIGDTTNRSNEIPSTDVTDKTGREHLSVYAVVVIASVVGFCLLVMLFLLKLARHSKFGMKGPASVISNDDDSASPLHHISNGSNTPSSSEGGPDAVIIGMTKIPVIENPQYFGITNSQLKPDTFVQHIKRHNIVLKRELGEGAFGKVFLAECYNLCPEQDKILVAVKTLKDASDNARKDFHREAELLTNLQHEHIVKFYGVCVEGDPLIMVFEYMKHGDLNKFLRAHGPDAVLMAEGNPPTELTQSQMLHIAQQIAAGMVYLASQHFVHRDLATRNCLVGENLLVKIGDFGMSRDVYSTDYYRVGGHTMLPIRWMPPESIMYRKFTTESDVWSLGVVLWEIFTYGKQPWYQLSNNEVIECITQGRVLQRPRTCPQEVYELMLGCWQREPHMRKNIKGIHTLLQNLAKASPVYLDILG
Experimental: FIG. 1b illustrates EC50 values of CF3CN and derivatives thereof. BR6 and T48 cells are treated with staurosporine (STS) (100 nM) and TrkB agonists. CF3CN and compounds #1-4 are added in a dose-dependent manner at concentrations of 0, 5, 10, 50, 100, 500, and 1,000 nM. After 24 h, an MTT assay is performed, and EC50 values are calculated using Prism software (n=3; data are represented by mean±standard deviation (SD)).
The pro-survival effects of four derivatives were quantitatively analyzed in human SH-SY5Y cells and T48 cells stably transfected with the TrkB. […] As PLCγ1 bound with a p-Y816 residue on the TrkB receptor and was subsequently tyrosine-phosphorylated by active TrkB, a tyrosine phosphorylation signal was also monitored in this example (FIG. 1c).

hERG = hERG (Homo sapiens, UniProt Q12809); experiment: hERG inhibition
Sequence of hERG (Q12809 whole entry): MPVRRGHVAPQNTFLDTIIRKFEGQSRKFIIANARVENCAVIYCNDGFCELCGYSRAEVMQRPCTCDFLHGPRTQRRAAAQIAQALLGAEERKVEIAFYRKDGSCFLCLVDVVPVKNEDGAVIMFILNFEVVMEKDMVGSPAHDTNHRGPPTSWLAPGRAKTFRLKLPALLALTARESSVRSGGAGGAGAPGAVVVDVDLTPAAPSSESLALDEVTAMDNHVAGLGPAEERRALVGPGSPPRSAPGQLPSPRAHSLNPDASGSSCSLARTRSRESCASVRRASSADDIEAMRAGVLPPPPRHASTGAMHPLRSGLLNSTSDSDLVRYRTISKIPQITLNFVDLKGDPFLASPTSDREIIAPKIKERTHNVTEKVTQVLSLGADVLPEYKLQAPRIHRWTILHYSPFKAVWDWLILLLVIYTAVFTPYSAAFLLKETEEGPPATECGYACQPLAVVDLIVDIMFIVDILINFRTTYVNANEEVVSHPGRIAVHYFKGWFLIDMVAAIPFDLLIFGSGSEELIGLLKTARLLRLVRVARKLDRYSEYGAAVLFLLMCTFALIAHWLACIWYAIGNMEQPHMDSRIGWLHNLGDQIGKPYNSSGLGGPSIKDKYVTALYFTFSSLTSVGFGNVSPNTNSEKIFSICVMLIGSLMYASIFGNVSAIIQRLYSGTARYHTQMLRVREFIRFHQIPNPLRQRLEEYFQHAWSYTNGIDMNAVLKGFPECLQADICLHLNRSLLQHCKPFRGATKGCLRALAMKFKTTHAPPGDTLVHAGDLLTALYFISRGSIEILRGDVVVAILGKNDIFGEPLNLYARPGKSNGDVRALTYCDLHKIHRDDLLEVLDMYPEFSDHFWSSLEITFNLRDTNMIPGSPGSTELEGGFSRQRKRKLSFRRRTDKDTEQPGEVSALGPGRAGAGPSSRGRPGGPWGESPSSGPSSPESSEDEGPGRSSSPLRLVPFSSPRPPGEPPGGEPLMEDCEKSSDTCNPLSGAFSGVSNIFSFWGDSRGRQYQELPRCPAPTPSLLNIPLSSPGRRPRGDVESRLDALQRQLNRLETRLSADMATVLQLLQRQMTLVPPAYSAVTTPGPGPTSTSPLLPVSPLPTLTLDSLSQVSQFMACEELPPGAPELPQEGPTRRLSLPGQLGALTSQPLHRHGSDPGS

[1] = Plasma protein binding (human); format: in vitro ADME; conditions: plasma, read-out: Plasma Protein Binding Fu, plasma
[2] = Stability in plasma (human); format: in vitro ADME; conditions: for half-life: plasma, read-out: Stability-Plasma T1/2
Permeability Caco-2 = format: in vitro ADME; conditions: human, Caco-2
Solubility (pH 7.4; PBS) = format: physicochemical
Permeability PAMPA-BBB = format: in vitro ADME; conditions: for Papp: PAMPA, read-out: Permeability-PAMPA-BBB Pe
[3] = Stability in hepatocytes (human); format: in vitro ADME; conditions: for hepatocyte CLint / half-life: hepatocytes; for hepatocyte CLint: read-out: Stability-Hepatocytes CL; for half-life: read-out: Stability-Hepatocytes T1/2
[4] = Plasma protein binding (mouse); format: in vitro ADME; conditions: plasma, read-out: Plasma Protein Binding Fu, plasma
[5] = Stability in hepatocytes (mouse); format: in vitro ADME; conditions: for hepatocyte CLint / half-life: hepatocytes; for hepatocyte CLint: read-out: Stability-Hepatocytes CL; for half-life: read-out: Stability-Hepatocytes T1/2
[6] = Stability in plasma (mouse); format: in vitro ADME; conditions: for half-life: plasma, read-out: Stability-Plasma T1/2
[7] = cited from earlier work
[8] = Stability in microsomes (mouse); format: in vitro ADME
plasma proteins [9] = experiment: Plasma protein binding (human); format: in vitro ADME
Caco-2 cells = experiment: Permeability Caco-2; format: in vitro ADME
[10] = Stability in microsomes (human); format: in vitro ADME; conditions: for microsomal CLint / half-life: liver microsomes; for microsomal CLint: read-out: Stability-Microsomes CL; for half-life: read-out: Stability-Microsomes T1/2
[11] = In vivo PK (plasma and brain, LC-MS/MS) in ICR mice; conditions: Table 1; dose and route not stated there
plasma proteins [12] = experiment: Plasma protein binding (mouse); format: in vitro ADME
Aβ42 = experiment: ELISA of Aβ42 in brain tissues; format: in vivo; conditions: 3×Tg mice, gavage 3 months
Experimental: FIG. 9i illustrates quantitative analysis of Aβ42 in brain tissues by an enzyme-linked immunosorbent assay (ELISA) (n=3, one-way ANOVA) (data are represented by mean±SD; […], ***p<0.005, ****p≤0.0001).
(§1) To investigate whether long-term chronic treatment with #2-NP alleviates cognitive deficits in 3×Tg AD model mice, mice were administered via gavage with #2 at 3 mg/kg, #2-NP at 3 mg/kg, and #2-NP at 10 mg/kg. […] The recognition index was increased by #2-NP in a dose-dependent manner (FIGS. 9a and b). […] Additionally, quantitative analysis of Aβ PET signals was performed using the specific ligand [18F] […] Collectively, #2-NP decreases cerebral Aβ deposition, reduces brain atrophy, and ameliorates cognitive deficits in 3×Tg mice.

in vivo = conditions: ICR, mouse
Experimental: (§2) FIG. 6b illustrates plasma concentrations following administration of #2 or #2-NP. ICR mice are divided into four groups, which are administered with #2 at 2 mg/kg (intravenous injection, IV), #2 at 5 mg/kg (oral administration, PO), #2-NP at 5 mg/kg (PO), and #2-NP at 10 mg/kg (PO). Blood samples are collected from all three mice of each group at corresponding time points, and concentrations of #2 are quantitatively analyzed by a liquid chromatography-tandem mass spectrometry (LC-MS/MS). Cmax: maximum plasma concentration; Tmax: time to maximum concentration; T½: terminal elimination half-life; AUC: area under curves; MRT: mean residence time; CL: clearance; and F: relative oral bioavailability.
(§3) FIG. 13a illustrates plasma concentrations and PK parameters of #2 quantitatively analyzed by LC-MS/MS after IG administration of #2, #2-NP, and #2-LIP at 5 mg/kg, as well as IN administration of #2 and #2-LIP at 5 mg/kg (n=3; data are represented by mean±SD).
(§4) FIG. 13b illustrates brain concentrations and PK parameters of #2 quantitatively analyzed by LC-MS/MS after IG administration of #2, #2-NP, and #2-LIP at 5 mg/kg, as well as IN administration of #2 and #2-LIP at 5 mg/kg (n=3; data are represented by mean±SD).
(§5) To investigate the in vivo PK profile of #2-NP, lyophilized #2-NP powder was redissolved. […] For quantitative comparison of the effects of the nanoparticle system in delivering #2 to the blood circulation system and brain tissues, PK studies were performed in 2-month-old ICR mice.

3×Tg mice [13] = experiment: MRI cerebral cortex volume; format: in vivo; conditions: gavage 3 months
Experimental: FIG. 9c illustrates representative T2-weighted magnetic resonance imaging (MRI) scanning images of 3×Tg mice, with cortical regions of interest (ROI) marked by red lines.
FIG. 9d illustrates a quantified cerebral cortex volume of ROI (n=3, one-way ANOVA).
as §1

p-TrkB Y816 = experiment: Immunofluorescent staining of p-TrkB in brain sections; format: in vivo; conditions: 3×Tg mice, IF staining
From the text: FIG. 11a illustrates immunofluorescent (IF) staining of p-TrkB and microtubule-associated protein 2 (MAP2) in brain tissues of 3×Tg mice, with a scale bar=50 μm.
FIG. 11e illustrates quantification of p-TrkB intensities in the hippocampus (n=6, one-way ANOVA) (data are represented by mean±SD; ns represents no statistically significant difference, *p<0.05, **p<0.01, ***p<0.001).
To further analyze the therapeutic effects of #2-NP against AD pathology, immunofluorescent (IF) staining of p-TrkB was performed on brain sections from drug-treated 3×Tg mice. […] Consequently, p-AEP IF signals were closely correlated with the upstream p-TrkB activity (FIGS. 11b & f). Simultaneously, active AEP IF staining was inversely coupled with the p-AEP activity, thereby leading to a progressive decline in APP C585 levels. Consistent with these findings, Tau N368 signals and AT8 IF intensity were closely correlated with each other (FIGS. 7C & D). Quantitative analysis of the fluorescence intensity confirmed these observations (FIGS. 11g-j).

[14] = ICR, mouse, in vivo
Experimental: as §2, §3, §4, §5

Aβ = experiment: IHC staining of Aβ in brain sections; format: in vivo; conditions: 3×Tg mice, gavage 3 months
Experimental: FIG. 9e illustrates immunohistochemical (IHC) staining of Aβ in brain sections of 3×Tg mice, with a scale bar=50 μm.
FIG. 9f illustrates a quantitative diagram of FIG. 9e (n=6, one-way ANOVA).
as §1

3×Tg mice [15] = experiment: Novel object recognition (NOR) test after 3 months treatment; format: in vivo; conditions: gavage 3 months, #2 3 mg/kg, #2-NP 3 and 10 mg/kg
Experimental: FIG. 9a illustrates representative movement trajectories in a novel object recognition (NOR) test for 3×Tg mice from a Vehicle group, a #2 3 mg/kg group, a #2-NP 3 mg/kg group, and a #2-NP 10 mg/kg group.
FIG. 9b illustrates statistical analysis of recognition indexes of different groups (n=6, one-way ANOVA).
as §1

Compound: NCc1ccc(-c2cc(=O)c3ccc4nc(C(F)(F)F)[nH]c4c3o2)cc1 [#1]
pro-survival EC50 (TrkB): excessively high

Compound: O=c1cc(-c2ccccc2)oc2c(O)c(O)ccc12 [7,8-DHF, 7,8-dihydroxyflavone]
oral bioavailability ([7]; earlier work on 7,8-DHF): approximately 4.6%

Compound: CNC(=O)c1ccc(-c2cc(=O)c3ccc4nc(C(F)(F)F)[nH]c4c3o2)cc1 [#3]
IC50 (hERG): > 10 µM
fraction unbound [1]: 0.002
half-life [2]: > 8 h
Papp B→A (Permeability Caco-2): 28.7 ×10⁻⁶ cm/s
solubility (Solubility (pH 7.4; PBS); aqueous buffer): > 100 µM
Papp (Permeability PAMPA-BBB): 0.815 ×10⁻⁶ cm/s
microsomal CLint [10]: 1.03 µL/min/mg
half-life [10]: 22.5 h
hepatocyte CLint [3]: < 3 µL/min/1e6 cells
half-life [3]: > 8 h
fraction unbound [4]: 0.005
hepatocyte CLint [5]: < 3 µL/min/1e6 cells
half-life [5]: > 8 h
half-life [6]: > 8 h

Compound: CNCc1ccc(-c2cc(=O)c3ccc4nc(C(F)(F)F)[nH]c4c3o2)cc1 [#2]
Aβ42 content (Aβ42): significantly decreased
microsomal CLint ([8]; liver microsomes, read-out: Stability-Microsomes CL): 10.5 µL/min/mg
half-life ([8]; liver microsomes, read-out: Stability-Microsomes T1/2): 2.22 h
Kp (in vivo): ~0.1
Cmax (in vivo; 5 mg/kg, maximum plasma concentration (Cmax)): 947 ng/mL
AUC (in vivo; inhaled or intranasal, 5 mg/kg): 1900 ng·h/mL
MRT (in vivo; inhaled or intranasal, 5 mg/kg): 2.11 h
bioavailability (in vivo; inhaled or intranasal, 5 mg/kg): 34.3%
half-life (in vivo; inhaled or intranasal, 5 mg/kg, elimination half-life): 1.54 h
Cmax (in vivo; inhaled or intranasal, 5 mg/kg, maximum plasma concentration (Cmax)): 947 ng/mL
AUC (in vivo; iv, 2 mg/kg): 2320 ng·h/mL
half-life (in vivo; iv, 2 mg/kg, brain t1/2): 1.41 h
half-life (in vivo; iv, 2 mg/kg, plasma half-life (t½)): 0.84 h
half-life (in vivo; iv, half-life in the brain): 3.49 h
AUC (in vivo; po, 5 mg/kg): 405 ng·h/mL
Cmax (in vivo; po, 5 mg/kg, Cmax): 90.8 ng/mL
half-life (in vivo; po, 5 mg/kg, brain t1/2): 3.49 h
half-life (in vivo; po, 5 mg/kg, half-life in the brain): 2.39 h
Cmax (in vivo; po, 5 mg/kg, maximum plasma concentration (Cmax)): 90.8 ng/mL
half-life (in vivo; po, 5 mg/kg, plasma half-life (t½)): ~4.09 h
half-life (in vivo; t1/2): 4.09 ± 2.65 h
IC50 (hERG): > 10 µM
fraction unbound [1]: 0.046
cerebral cortex volume compared to the Vehicle group (3×Tg mice [13]): elevation trend without statistical significance
half-life [2]: > 8 h
p-TrkB Y816 in the hippocampus (p-TrkB Y816): significant activation
brain AUC ([14]; 5 mg/kg): 78.34 ng·h/mL
plasma Cmax, IN versus PO administration ([14]; 5 mg/kg): approximately 10 fold
clearance (CL) ([14]; inhaled or intranasal, 5 mg/kg): 43.95 mL/min/kg
brain maximum concentration ([14]; iv): 18.47 ng/g
brain AUC ([14]; iv, 2 mg/kg): 84.26 ng·h/mL
brain Cmax ([14]; iv, 2 mg/kg): 164.38 ng/g
brain maximum concentration ([14]; po): 27.663 ng/g
brain AUC ([14]; po, 5 mg/kg): 35.75 ng·h/mL
brain Cmax ([14]; po, 5 mg/kg): 18.47 ng/g
clearance ([14]; po, 5 mg/kg): 223 mL/min/kg
efflux ratio (Permeability Caco-2): 193
Papp A→B (Permeability Caco-2; a-b): 0.0175 ×10⁻⁶ cm/s
Papp B→A (Permeability Caco-2): 13.9 ×10⁻⁶ cm/s
solubility (Solubility (pH 7.4; PBS); aqueous buffer): 50 µM (≈ 18.7 µg/mL)
pro-survival EC50 (TrkB): comparable
Papp (Permeability PAMPA-BBB): 0.135 ×10⁻⁶ cm/s
Aβ aggregation in the hippocampus (Aβ): significantly reduced
microsomal CLint [10]: 2.32 µL/min/mg
half-life [10]: 9.97 h
hepatocyte CLint [3]: < 3 µL/min/1e6 cells
half-life [3]: > 8 h
cognitive function in NOR test (recognition index) (3×Tg mice [15]): failed to improve
fraction unbound [4]: 0.012
hepatocyte CLint [5]: < 3 µL/min/1e6 cells
half-life [5]: > 8 h
half-life [6]: > 8 h

Now from value to molecule, other results behind:

fraction unbound [1]: 0.004
half-life [2]: > 8 h
Papp B→A (Permeability Caco-2): 45.9 ×10⁻⁶ cm/s
solubility (Solubility (pH 7.4; PBS); aqueous buffer): > 100 µM
Papp (Permeability PAMPA-BBB): 1.27 ×10⁻⁶ cm/s
hepatocyte CLint [3]: < 3 µL/min/1e6 cells
half-life [3]: > 8 h
fraction unbound [4]: 0.009
hepatocyte CLint [5]: < 3 µL/min/1e6 cells
half-life [5]: > 8 h
half-life [6]: > 8 h
Compound: CN(C)C(=O)c1ccc(-c2cc(=O)c3ccc4nc(C(F)(F)F)[nH]c4c3o2)cc1 [#4]
IC50 (hERG): > 10 µM
pro-survival EC50 (TrkB): comparable

Stability-Microsomes CL [8]: <12.8(mouse) μL/min/mg
Stability-Microsomes T1/2 [8]: >180(mouse) min
Plasma Protein Binding Fu, plasma (plasma proteins [9]): 0.101% (human);
Stability-Plasma T1/2 [2]: >480 (human) min
Caco-2 Efflux Ratio (Caco-2 cells): 3.6
Permeability-Caco-2 Papp (b-a) (Caco-2 cells; b-a): 42.6 (b-a) 10 cm/s
solubility (Solubility (pH 7.4; PBS)): >200 µM
Permeability-PAMPA-BBB Pe (Permeability PAMPA-BBB): 3.09 10 cm/s
Stability-Microsomes CL [10]: <12.8(human); μL/min/mg
Stability-Microsomes T1/2 [10]: >180(human); min
Stability-Hepatocytes T1/2 [3]: >480 (human) min
t1/2 [11]: 2.994 ± 1.538 h
Plasma Protein Binding Fu, plasma (plasma proteins [12]): 3.55% (mouse)
Stability-Hepatocytes T1/2 [5]: >480 (mouse); min
Stability-Plasma T1/2 [6]: >480 (mouse); min
Compound: N#Cc1ccc(-c2cc(=O)c3ccc4[nH]c(C(F)(F)F)nc4c3o2)cc1 [CF3CN, reference compound]
IC50 (hERG): > 25 µM
B/P Ratio (Brain/Plasma Ratio) ([7]; earlier work on CF3CN): approximately 1%
